Measurements as given in patent US9556183B2, “Substituted pyrazolylpyrazole derivative and use of same as herbicide” (KYOYU AGRI CO., LTD., priority 2013, dated 2017).

Tests used:
Type in all cases: in vivo
[1] = test system: Scirpus juncoides; assay: Paddy herbicidal activity test; details: irrigated paddy pot, 30 days
Method: (§1) Rice paddy soil was filled into a 1/10000 are pot followed by the addition of suitable amounts of water and chemical fertilizer, kneading, seeding with Echinochloa crus-galli, Monochoria vaginalis and Scirpus juncoides and maintaining in an irrigated state at a water depth of 3 cm. Wettable powder of Target Compound (I) shown in Table 1 prepared in compliance with the preparation examples were diluted with a suitable amount of water, rice plants in the 2.0 leaf stage were transplanted during 3.5 leaf stage of Echinochloa crus-galli, and treated by dropping in chemical in the prescribed amount per are using a pipette. After treating for 30 days in a glass greenhouse at an average atmospheric temperature of 30° C., the herbicidal efficacy thereof was investigated. Evaluation of herbicidal efficacy was carried out by comparing growth inhibition rate (%) with an untreated group, while evaluation of phytotoxicity was carried out by comparing growth inhibition rate (%) with the state of a complete eradication group, and were evaluated at 11 levels indicated below. [table]

[2] = test system: Monochoria vaginalis; assay: Paddy herbicidal activity test; details: irrigated paddy pot, 30 days
Method: as §1

[3] = test system: Echinochloa crus-galli; assay: Paddy herbicidal activity test; details: irrigated paddy pot, treated at 3.5 leaf stage of Echinochloa crus-galli, 30 days
Method: as §1

[4] = test system: Rice plants; assay: Paddy herbicidal activity test, phytotoxicity to transplanted rice; details: rice transplanted at 2.0 leaf stage, 30 days
Method: as §1

[5] = test system: Digitaria ciliaris; assay: Farming soil treatment test; details: soil surface spray prior to weed growth, 30 days
Method: (§2) Evaluation of herbicidal efficacy was carried out by comparing growth inhibition rate (%) with an untreated group, while evaluation of phytotoxicity was carried out by comparing growth inhibition rate (%) with the state of a complete eradication group, and were evaluated at 11 levels indicated below. [table] Field soil was filled into a 1/6000 are pot followed by seeding with Digitaria ciliaris, Chenopodium album and Amaranthus retroflexus and covering with soil. Wettable powder of compounds of formula (I) shown in Table 1 prepared in compliance with the preparation examples were diluted with water to the prescribed amount of chemical and uniformly sprayed onto each soil surface layer using 10 liters of sprayed water per are prior to weed growth following seeding. After treating for 30 days in a glass greenhouse at an average atmospheric temperature of 30° C., the herbicidal efficacy thereof was investigated. Evaluation of herbicidal efficacy was carried out in the same manner as the above-mentioned Test Example 1.

[6] = test system: Amaranthus retroflexus; assay: Farming soil treatment test; details: soil surface spray prior to weed growth, 30 days
Method: as §2

[7] = test system: Chenopodium album; assay: Farming soil treatment test; details: soil surface spray prior to weed growth, 30 days
Method: as §2

[8] = test system: Digitaria ciliaris; assay: Weed foliar treatment test; details: foliar spray at 1.0 to 2.0 leaf stage of Digitaria ciliaris, 3 weeks
Method: (§3) Evaluation of herbicidal efficacy was carried out by comparing growth inhibition rate (%) with an untreated group, while evaluation of phytotoxicity was carried out by comparing growth inhibition rate (%) with the state of a complete eradication group, and were evaluated at 11 levels indicated below. [table] Soil was filled into a 1/6000 are pot followed by seeding with Digitaria ciliaris, Chenopodium album and Amaranthus retroflexus, covering with soil, and cultivating in a glass greenhouse at an average atmospheric temperature of 25° C. Wettable powder of Target Compound (I) shown in Table 1 prepared in compliance with the preparation examples were diluted with water to the prescribed amount of chemical and uniformly sprayed onto the weeds using 15 liters of sprayed water per are when Digitaria ciliaris had grown to the 1.0 to 2.0 leaf stage. After treating for 3 weeks in a glass greenhouse at an average atmospheric temperature of 25° C., the herbicidal efficacy thereof was investigated, Evaluation of herbicidal efficacy was carried out in the same manner as the above-mentioned Test Example 1.

[9] = test system: Amaranthus retroflexus; assay: Weed foliar treatment test; details: foliar spray, 3 weeks
Method: as §3

[10] = test system: Chenopodium album; assay: Weed foliar treatment test; details: foliar spray, 3 weeks
Method: as §3

| SMILES | herbicidal efficacy (growth inhibition rate level) Scirpus juncoides ([1]; 1g a.i./10a) | herbicidal efficacy (growth inhibition rate level) Scirpus juncoides ([1]; 5g a.i./10a) | herbicidal efficacy (growth inhibition rate level) Monochoria vaginalis ([2]; 1g a.i./10a) | herbicidal efficacy (growth inhibition rate level) Monochoria vaginalis ([2]; 5g a.i./10a) | herbicidal efficacy (growth inhibition rate level) Echinochloa crus-galli ([3]; 1g a.i./10a) | herbicidal efficacy (growth inhibition rate level) Echinochloa crus-galli ([3]; 5g a.i./10a) | phytotoxicity (growth inhibition rate level) Rice plants ([4]; 1g a.i./10a) | phytotoxicity (growth inhibition rate level) Rice plants ([4]; 5g a.i./10a) | herbicidal efficacy (growth inhibition rate level) Digitaria ciliaris ([5]; 5g a.i./10a) | herbicidal efficacy (growth inhibition rate level) Digitaria ciliaris ([5]; 10g a.i./10a) | herbicidal efficacy (growth inhibition rate level) Amaranthus retroflexus ([6]; 5g a.i./10a) | herbicidal efficacy (growth inhibition rate level) Amaranthus retroflexus ([6]; 10g a.i./10a) | herbicidal efficacy (growth inhibition rate level) Chenopodium album ([7]; 5g a.i./10a) | herbicidal efficacy (growth inhibition rate level) Chenopodium album ([7]; 10g a.i./10a) | herbicidal efficacy (growth inhibition rate level) Digitaria ciliaris ([8]; 5g a.i./10a) | herbicidal efficacy (growth inhibition rate level) Digitaria ciliaris ([8]; 10g a.i./10a) | herbicidal efficacy (growth inhibition rate level) Amaranthus retroflexus ([9]; 5g a.i./10a) | herbicidal efficacy (growth inhibition rate level) Amaranthus retroflexus ([9]; 10g a.i./10a) | herbicidal efficacy (growth inhibition rate level) Chenopodium album ([10]; 5g a.i./10a) | herbicidal efficacy (growth inhibition rate level) Chenopodium album ([10]; 10g a.i./10a) |
| --- | --- | --- | --- | --- | --- | --- | --- | --- | --- | --- | --- | --- | --- | --- | --- | --- | --- | --- | --- | --- |
| N#Cc1cnn(-c2nn3c(c2Cl)CCCC3)c1NCC1CO1 (stereo not shown) [Control agent 4.129, reference compound] | 3 (3: 30% to less than 40%) | 4 (4: 40% to less than 50%) | 0 (0 (exponent): 0% to less than 10% (growth inhibition rate)) | 0 (0 (exponent): 0% to less than 10% (growth inhibition rate)) | 1 (1: 10% to less than 20%) | 3 (3: 30% to less than 40%) | 1 (1: 10% to less than 20%) | 2 (2: 20% to less than 30%) | 4 (4: 40% to less than 50%) | 5 (5: 50% to less than 60%) | 6 (6: 60% to less than 70%) | 7 (7: 70% to less than 80%) | 6 (6: 60% to less than 70%) | 6 (6: 60% to less than 70%) | 4 (4: 40% to less than 50%) | 5 (5: 50% to less than 60%) | 7 (7: 70% to less than 80%) | 7 (7: 70% to less than 80%) | 6 (6: 60% to less than 70%) | 7 (7: 70% to less than 80%) |
| N#Cc1cnn(-c2nn3c(c2Cl)CCCC3)c1NCC1CC1(F)F (stereo not shown) [Compound 185] | 10 (10: 100%) | 10 (10: 100%) | 9 (9: 90% to less than 100%) | 9 (9: 90% to less than 100%) | 10 (10: 100%) | 10 (10: 100%) | 0 (0 (exponent): 0% to less than 10% (growth inhibition rate)) | 1 (1: 10% to less than 20%) | 10 (10: 100%) | 10 (10: 100%) | 10 (10: 100%) | 10 (10: 100%) | 10 (10: 100%) | 10 (10: 100%) | 10 (10: 100%) | 10 (10: 100%) | 10 (10: 100%) | 10 (10: 100%) | 10 (10: 100%) | 10 (10: 100%) |
| N#Cc1cnn(-c2nn3c(c2Br)CCCC3)c1N(CC1CC1)C(=O)C(F)(F)F [Compound 148] | 7 (7: 70% to less than 80%) | 9 (9: 90% to less than 100%) | 7 (7: 70% to less than 80%) | 9 (9: 90% to less than 100%) | 8 (8: 80% to less than 90%) | 10 (10: 100%) | 0 (0 (exponent): 0% to less than 10% (growth inhibition rate)) | 0 (0 (exponent): 0% to less than 10% (growth inhibition rate)) | 10 (10: 100%) | 10 (10: 100%) | 10 (10: 100%) | 10 (10: 100%) | 10 (10: 100%) | 10 (10: 100%) | 10 (10: 100%) | 10 (10: 100%) | 10 (10: 100%) | 10 (10: 100%) | 10 (10: 100%) | 10 (10: 100%) |
| CC1CC1CNc1c(C#N)cnn1-c1nn2c(c1Cl)CCCC2 (stereo not shown) [Compound 12] | 9 (9: 90% to less than 100%) | 9 (9: 90% to less than 100%) | 8 (8: 80% to less than 90%) | 9 (9: 90% to less than 100%) | 9 (9: 90% to less than 100%) | 10 (10: 100%) | 0 (0 (exponent): 0% to less than 10% (growth inhibition rate)) | 1 (1: 10% to less than 20%) | 10 (10: 100%) | 10 (10: 100%) | 10 (10: 100%) | 10 (10: 100%) | 10 (10: 100%) | 10 (10: 100%) | 10 (10: 100%) | 10 (10: 100%) | 10 (10: 100%) | 10 (10: 100%) | 10 (10: 100%) | 10 (10: 100%) |
| N#Cc1cnn(-c2nn3c(c2Cl)CCCC3)c1N(CC1CC1(F)F)C(=O)C(F)(F)F (stereo not shown) [Compound 186] | 9 (9: 90% to less than 100%) | 10 (10: 100%) | 9 (9: 90% to less than 100%) | 9 (9: 90% to less than 100%) | 10 (10: 100%) | 10 (10: 100%) | 0 (0 (exponent): 0% to less than 10% (growth inhibition rate)) | 1 (1: 10% to less than 20%) | 10 (10: 100%) | 10 (10: 100%) | 10 (10: 100%) | 10 (10: 100%) | 10 (10: 100%) | 10 (10: 100%) | 10 (10: 100%) | 10 (10: 100%) | 10 (10: 100%) | 10 (10: 100%) | 10 (10: 100%) | 10 (10: 100%) |
